Among the test systems are ACHN renal; IGROV1 ovarian; SR leukemia; SN12C renal; SF-295 CNS; KM12 colon; CAKI-1 renal; SF-268 CNS; SNB-19 CNS; UACC-257 melanoma; 786-0 renal; HCT-116 colon; UACC-62 melanoma; NCI-H23 lung; T-47D breast; BT-549 breast; K-562 leukemia.
Common to all, as to test: NCI-60 cell line screen, 48 h

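Where inhibition never reached the appropriate level, the endpoint shown equals the highest concentration tested. Otherwise, values were interpolated linearly from a five-concentration, 48-hour dose response in 96-well plates. TGI denotes the concentration required for complete inhibition of growth.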

On to `CC(C)(C)c1ccc(-c2nc3ccccc3c(=O)o2)cc1`, for which the TGI in the assay on ACHN renal is above 100 µM; in the assay with IGROV1 ovarian, above 100 µM; with SR leukemia it was 54.2 µM; in the assay with SN12C renal, above 100 µM; in the assay with SF-295 CNS, above 100 µM; with KM12 colon it was above 100 µM. For the same compound, the TGI with CAKI-1 renal, in the assay with SF-268 CNS, with SNB-19 CNS, in the assay with UACC-257 melanoma, with 786-0 renal and in the assay on HCT-116 colon was above 100 µM each time. Besides, the TGI is above 100 µM in the assay on UACC-62 melanoma; above 100 µM in the assay on NCI-H23 lung; above 100 µM in the assay with T-47D breast; 91 µM in the assay on BT-549 breast; above 100 µM with K-562 leukemia.

For `Cn1c(=O)nc2n(CCO)ccnc-2c1=O`, the TGI in the assay with ACHN renal, in the assay with IGROV1 ovarian, with SR leukemia, with SN12C renal, with SF-295 CNS and in the assay with KM12 colon was above 100 µM in each case. For the same compound, the TGI in the assay with CAKI-1 renal, in the assay on SF-268 CNS, in the assay on SNB-19 CNS, in the assay with UACC-257 melanoma, in the assay with 786-0 renal and in the assay on HCT-116 colon was above 100 µM in each case. Besides, the TGI in the assay with UACC-62 melanoma, in the assay on NCI-H23 lung, in the assay with T-47D breast, in the assay on BT-549 breast and with K-562 leukemia was above 100 µM each time.

`COc1ccc(-n2nnc3c(C#N)c(-c4ccccc4)c(C)n3c2=O)cc1`: the TGI with ACHN renal was above 100 µM; in the assay on IGROV1 ovarian, above 100 µM; in the assay on SR leukemia, 91 µM; in the assay on SN12C renal, above 100 µM; with SF-295 CNS, above 100 µM; in the assay on KM12 colon, above 100 µM. In addition, the TGI in the assay on CAKI-1 renal was above 100 µM; in the assay on SF-268 CNS it was above 100 µM; in the assay on SNB-19 CNS it was above 100 µM; with UACC-257 melanoma, above 100 µM; in the assay with 786-0 renal it was 40 µM; in the assay with HCT-116 colon it was above 100 µM. Further, the TGI with UACC-62 melanoma, in the assay with NCI-H23 lung, with T-47D breast, with BT-549 breast and in the assay with K-562 leukemia was above 100 µM in each case.

As for `NC(=O)NC(CC(=O)O)C(=O)O` (stereo unspecified), the TGI in the assay on ACHN renal, in the assay on IGROV1 ovarian, in the assay on SR leukemia, with SN12C renal, with SF-295 CNS and in the assay with KM12 colon was above 100 µM throughout. Moreover, the TGI in the assay with CAKI-1 renal, with SF-268 CNS, with SNB-19 CNS, in the assay with UACC-257 melanoma, with 786-0 renal and in the assay with HCT-116 colon was above 100 µM in each case. Also, the TGI in the assay with UACC-62 melanoma, in the assay with NCI-H23 lung, in the assay on T-47D breast, with BT-549 breast and in the assay on K-562 leukemia was above 100 µM throughout.

Regarding `C[C@@H](C(=O)O)c1ccc(-c2ccccc2)c(F)c1`, the TGI with ACHN renal, with IGROV1 ovarian, with SR leukemia, in the assay with SN12C renal, in the assay on SF-295 CNS and in the assay on KM12 colon was above 100 µM throughout. Further, the TGI in the assay on CAKI-1 renal, in the assay with SF-268 CNS, in the assay with SNB-19 CNS, in the assay on UACC-257 melanoma, in the assay on 786-0 renal and in the assay with HCT-116 colon was above 100 µM in each case. The TGI in the assay on UACC-62 melanoma, in the assay on NCI-H23 lung, in the assay on T-47D breast, in the assay on BT-549 breast and in the assay on K-562 leukemia was above 100 µM each time.

For the compound `COc1ccc(C(=O)/C=C2\c3ccccc3C(=O)N2C)cc1`, the TGI in the assay on ACHN renal, in the assay with IGROV1 ovarian, in the assay with SR leukemia, in the assay on SN12C renal, in the assay on SF-295 CNS and in the assay on KM12 colon was above 100 µM in each case. Also, the TGI in the assay on CAKI-1 renal, with SF-268 CNS, with SNB-19 CNS, in the assay with UACC-257 melanoma, in the assay on 786-0 renal and in the assay with HCT-116 colon was above 100 µM throughout. Moreover, the TGI in the assay on UACC-62 melanoma, in the assay on NCI-H23 lung, in the assay with T-47D breast, with BT-549 breast and with K-562 leukemia was above 100 µM in each case.

Take `COc1ccc(-c2nc(N)c(C#N)c3c2CCSc2ccc(C)cc2-3)cc1OC`: the TGI in the assay with ACHN renal was above 73.9 µM; with IGROV1 ovarian, above 91.2 µM; in the assay on SR leukemia, 18.1 µM; in the assay on SN12C renal, 44.4 µM; in the assay with SF-295 CNS, above 100 µM; in the assay on KM12 colon, 34.2 µM. Further, the TGI is above 70.5 µM in the assay on CAKI-1 renal; 93.9 µM with SF-268 CNS; above 83.5 µM in the assay on SNB-19 CNS; above 76.2 µM in the assay with UACC-257 melanoma; above 61.1 µM in the assay with 786-0 renal; 30.7 µM in the assay with HCT-116 colon. In addition, the TGI is 47.1 µM in the assay on UACC-62 melanoma; above 61 µM in the assay on NCI-H23 lung; above 31.5 µM in the assay on T-47D breast; 70.8 µM in the assay with BT-549 breast; 13.7 µM with K-562 leukemia.

Turning to `CN(C)CCCc1cccnc1`, the TGI in the assay on ACHN renal, in the assay on IGROV1 ovarian, with SR leukemia, in the assay with SN12C renal, with SF-295 CNS and with KM12 colon was above 100 µM each time. Besides, the TGI in the assay with CAKI-1 renal, in the assay on SF-268 CNS, with SNB-19 CNS, in the assay on UACC-257 melanoma, in the assay on 786-0 renal and in the assay on HCT-116 colon was above 100 µM in each case. Also, the TGI with UACC-62 melanoma, with NCI-H23 lung, in the assay on T-47D breast, with BT-549 breast and in the assay on K-562 leukemia was above 100 µM in each case.

As to `CN(C)CCSC(=Nc1ccccc1)N1C=COC=C1`, the TGI with ACHN renal was above 100 µM; in the assay with IGROV1 ovarian it was 33.4 µM; with SR leukemia it was above 100 µM; in the assay with SN12C renal, 64.6 µM; in the assay on SF-295 CNS, above 100 µM; in the assay with KM12 colon, above 100 µM. Besides, the TGI was above 100 µM in the assay on CAKI-1 renal; 42.5 µM in the assay with SF-268 CNS; above 100 µM with SNB-19 CNS; 33.8 µM with UACC-257 melanoma; 38.9 µM in the assay on 786-0 renal; 45 µM with HCT-116 colon. The TGI with UACC-62 melanoma was 30.9 µM; in the assay on NCI-H23 lung, above 73.6 µM; with T-47D breast, 74.4 µM; with BT-549 breast, above 100 µM; with K-562 leukemia, above 100 µM.

As to `OCCOCCN1CCN(c2nc(N3CCCC3)c3nc(Cl)c(NCc4ccccc4)nc3n2)CC1`, the TGI worked out at 27.2 µM with ACHN renal; 33.9 µM in the assay with IGROV1 ovarian; 17.8 µM in the assay with SR leukemia; 29.4 µM in the assay with SN12C renal; 29.3 µM in the assay with SF-295 CNS; 26.8 µM in the assay on KM12 colon. Besides, the TGI in the assay on CAKI-1 renal stood at 31.1 µM; in the assay with SF-268 CNS, 31.9 µM; in the assay on SNB-19 CNS, 29.8 µM; in the assay with UACC-257 melanoma, 27.4 µM; in the assay with 786-0 renal, 26.5 µM; in the assay on HCT-116 colon, 26.4 µM. Besides, the TGI in the assay with UACC-62 melanoma came out at 27.3 µM; with NCI-H23 lung, 31.4 µM; in the assay with T-47D breast, 30.6 µM; with BT-549 breast it was 29.1 µM; in the assay on K-562 leukemia, 16.4 µM.

Take `COc1ccc(N2C(=O)CSC2c2cc3cc(Br)ccc3nc2Cl)cc1` (stereo unspecified): the TGI in the assay with ACHN renal, in the assay on IGROV1 ovarian, in the assay on SR leukemia, in the assay on SN12C renal, with SF-295 CNS and in the assay with KM12 colon was above 50 µM in each case. For the same compound, the TGI in the assay on CAKI-1 renal, in the assay with SF-268 CNS, with SNB-19 CNS, with UACC-257 melanoma, with 786-0 renal and in the assay with HCT-116 colon was above 50 µM throughout. Besides, the TGI in the assay on UACC-62 melanoma, in the assay with NCI-H23 lung, in the assay on T-47D breast, in the assay with BT-549 breast and in the assay on K-562 leukemia was above 50 µM in each case.

Turning to `Nc1ccn([C@H]2CO[C@@H](CO)O2)c(=O)n1`, the TGI in the assay with ACHN renal is 7.87 µM; in the assay on IGROV1 ovarian, above 100 µM; in the assay on SR leukemia it was above 100 µM; in the assay on SN12C renal it was above 100 µM; with SF-295 CNS, above 100 µM; in the assay on KM12 colon it was above 100 µM. Besides, the TGI was 23 µM with CAKI-1 renal; above 100 µM with SF-268 CNS; above 100 µM in the assay on SNB-19 CNS; above 100 µM in the assay with UACC-257 melanoma; above 100 µM in the assay with 786-0 renal; above 100 µM in the assay with HCT-116 colon. Also, the TGI in the assay on UACC-62 melanoma is above 46.4 µM; with NCI-H23 lung, above 100 µM; in the assay with T-47D breast, above 100 µM; in the assay with BT-549 breast, above 100 µM; in the assay with K-562 leukemia, above 100 µM.

Turning to `C[C@@H]1CCC2[C@@H](C)[C@H](O[C@H]3O[C@@H]4O[C@@]5(C)CCC6[C@H](C)CCC([C@H]3C)[C@]64OO5)O[C@@H]3O[C@@]4(C)CCC1[C@@]23OO4` (stereo partly specified), the TGI in the assay on ACHN renal stood at 14.2 µM; in the assay with IGROV1 ovarian, 18.4 µM; in the assay with SR leukemia it was 1.28 µM; in the assay on SN12C renal it was 15.6 µM; in the assay on SF-295 CNS, 18.8 µM; with KM12 colon, 13.3 µM. The TGI in the assay with CAKI-1 renal was 13.9 µM; in the assay on SF-268 CNS it was 23.8 µM; in the assay on SNB-19 CNS, 25.2 µM; in the assay with UACC-257 melanoma it was 18.6 µM; in the assay on 786-0 renal it was 18 µM; with HCT-116 colon it was 12.7 µM. Also, the TGI in the assay with UACC-62 melanoma is 15.9 µM; with NCI-H23 lung it was 13.3 µM; in the assay on T-47D breast it was 22.2 µM; in the assay with BT-549 breast, 14.7 µM; with K-562 leukemia it was above 100 µM.

For the origin of these results see PubChem BioAssay (NCI).
